Calls of active or inactive are those of the source. No cut-off for these calls is given here.
Legend:
Hepatitis C virus [1] = assay: Antiviral activity against HCV genotype 2a JFH-1 infected in human Huh7.5.1 cells after 2 hrs by luciferase assay; type: functional, organism-based, Hepacivirus hominis; details: JFH-1, Huh-7, 2 h
[2] = Cytotoxicity against human Huh7.5.1 cells; type: cell-based, Huh-7
Hepatitis C virus [3] = assay: Antiviral activity against HCV genotype 1b Con-1 infected in human HuH7 cells after 72 hrs by luciferase based replicon assay; type: functional, organism-based; details: Hepacivirus hominis; isolate Con1; Huh-7
Hepatitis C virus [4] = assay: Ratio of RO8191 EC50 to compound EC50 for HCV genotype 2a JFH-1 infected in human Huh7.5.1 cells after 2 hrs by luciferase assay; type: functional, Hepacivirus hominis, Huh-7
Vero = assay: Activation of ISRE reporter gene in African green monkey Vero cells at 4 to 100 uM after 24 hrs by luciferase assay; type: functional, cell-based; details: Chlorocebus sabaeus
Huh-7 [5] = assay: Activation of ISRE reporter gene in human HuH7 cells at 2 to 50 uM after 24 hrs by luciferase assay; type: functional, cell-based
Huh-7 [6] = assay: Activation of ISRE reporter gene in human Huh7.5.1 cells at 2 to 50 uM after 24 hrs by luciferase assay; type: functional, cell-based
HepG2 = assay: Activation of ISRE reporter gene in human HepG2 cells at 2 to 50 uM after 24 hrs by luciferase assay; type: functional, cell-based
Hepatitis C virus [7] = assay: Antiviral activity against HCV genotype 2a JFH-1 in human Huh7.5.1 cells assessed as reduction of viral entry up to 3 hrs by luciferase assay; type: functional, organism-based; details: Hepacivirus hominis, Huh-7
Hepatitis C virus [8] = assay: Antiviral activity against HCV genotype 2a JFH-1 in human Huh7.5.1 cells assessed as inhibition of viral attachment to heparan sulfate proteoglycans at 0.2 uM at 4 degC by luciferase assay; type: functional, organism-based; details: Hepacivirus hominis, Huh-7
Hepatitis C virus [9] = assay: Antiviral activity against HCV genotype 2a JFH-1 in human Huh7.5.1 cells assessed as inhibition of post-attachment infection phase at 0.2 uM after 3 days by luciferase assay; type: functional, Hepacivirus hominis; details: JFH-1, Huh-7, 72 h
Hepatitis B virus = assay: Antiviral activity against HBV infected in human HepAD38 cells; type: functional, organism-based
Enterovirus A71 = assay: Antiviral activity against EV71 infected in human RD cells; type: functional, organism-based; details: Enterovirus A
[10] = test system: Human immunodeficiency virus; assay: Antiviral activity against HIV infected in human Ghost cells; type: functional, organism-based; details: Human immunodeficiency virus 1, Ghost
[11] = test system: Middle East respiratory syndrome-related coronavirus; assay: Antiviral activity against MERS infected in human HuH7 cells; type: functional, cell-based; details: Huh-7
[12] = Cytotoxicity against human HepAD38 cells; type: cell-based
[13] = Cytotoxicity against human RD cells; type: cell-based
[14] = Cytotoxicity against human GHOST cells; type: cell-based
[15] = Cytotoxicity against human HuH7 cells; type: cell-based, Huh-7
[16] = Tmax in Wistar rat at 100 mg/kg, po; type: ADME, organism-based; details: in vivo
[17] = Cmax in Wistar rat at 100 mg/kg, po; type: ADME, organism-based; design: dose 100 mg/kg, route oral; details: in vivo
[18] = Elimination half life in Wistar rat at 100 mg/kg, po; type: ADME, organism-based; details: in vivo, read-out: beta t1/2 (converted)
[19] = AUC ( 0 to 24 hrs) in Wistar rat at 100 mg/kg, po; type: ADME, organism-based; design: time < 24 hr, dose 100 mg/kg, route oral; details: in vivo
[20] = AUC ( 0 to infinity) in Wistar rat at 100 mg/kg, po; type: ADME, organism-based; design: dose 100 mg/kg, route oral, time infinity; details: in vivo
Hepatitis C virus [21] = assay: Antiviral activity against HCV; type: functional, organism-based, Hepacivirus hominis
Hepatitis C virus [22] = assay: Antiviral activity against HCV genotype 2a JFH-1 in human Huh7.5.1 cells assessed as inhibition of viral attachment to heparan sulfate proteoglycans at 10 nM at 4 degC by luciferase assay; type: functional, organism-based; details: Hepacivirus hominis, Huh-7

## CN(C)CCNC(=O)c1cn2c(ccc3c(C(F)(F)F)cc(C(F)(F)F)nc32)n1
Hepatitis C virus [1]
  EC50: 0.069 µM
[2]
  CC50: > 25 µM
Hepatitis C virus [3]
  Activity: inactive

## O=C(c1cn2c(ccc3c(C(F)(F)F)cc(C(F)(F)F)nc32)n1)N1CCNCC1
Hepatitis C virus [1]
  EC50: 0.046 µM
Hepatitis C virus [4]
  Ratio EC50: 5
[2]
  CC50: > 25 µM
Hepatitis C virus [3]
  Activity: inactive

## NCCCNC(=O)c1cn2c(ccc3c(C(F)(F)F)cc(C(F)(F)F)nc32)n1
Hepatitis C virus [1]
  EC50: 1.3 µM
[2]
  CC50: > 25 µM

## Nc1ccccc1NC(=O)c1cn2c(ccc3c(C(F)(F)F)cc(C(F)(F)F)nc32)n1
Hepatitis C virus [1]
  EC50: > 20 µM
[2]
  CC50: > 25 µM

## NCCNC(=O)c1cn2c(ccc3c(C(F)(F)F)cc(C(F)(F)F)nc32)n1
Hepatitis C virus [1]
  EC50: 0.017 µM
Hepatitis C virus [4]
  Ratio EC50: 5
[2]
  CC50: > 25 µM
Hepatitis C virus [3]
  Activity: inactive
Vero
  Activity: inactive
Huh-7 [5]
  Activity: inactive
Huh-7 [6]
  Activity: inactive
HepG2
  Activity: inactive
Hepatitis C virus [7]
  inhibition: Active
Hepatitis C virus [8]
  inhibition: Active
Hepatitis C virus [9]
  inhibition at 0.2 µM: 90%
Hepatitis B virus
  EC50: > 20 µM
Enterovirus A71
  EC50: > 20 µM
[10]
  EC50: > 20 µM
[11]
  EC50: > 20 µM
[12]
  CC50: > 20 µM
[13]
  CC50: > 20 µM
[14]
  CC50: > 20 µM
[15]
  CC50: > 20 µM
[16]
  Tmax: 2.17 h
[17]
  Cmax: 2050 nM
[18]
  half-life: 2.93 h
[19]
  AUC(0-t) at 24 h: 19 µM·h
[20]
  AUC(0-inf): 19.1 µM·h

## Nc1ccc(NC(=O)c2cn3c(ccc4c(C(F)(F)F)cc(C(F)(F)F)nc43)n2)cc1
Hepatitis C virus [1]
  EC50: > 20 µM
[2]
  CC50: > 25 µM

## COC(=O)C1CCCN(C(=O)c2cn3c(ccc4c(C(F)(F)F)cc(C(F)(F)F)nc43)n2)C1 (centres undefined)
Hepatitis C virus [1]
  EC50: 2.54 µM
[2]
  CC50: > 25 µM

## Nc1cccc(NC(=O)c2cn3c(ccc4c(C(F)(F)F)cc(C(F)(F)F)nc43)n2)c1
Hepatitis C virus [1]
  EC50: > 20 µM
[2]
  CC50: > 25 µM

## CNCCN(C)C(=O)c1cn2c(ccc3c(C(F)(F)F)cc(C(F)(F)F)nc32)n1
Hepatitis C virus [1]
  EC50: 0.02 µM
Hepatitis C virus [4]
  Ratio EC50: 5
[2]
  CC50: > 25 µM
Hepatitis C virus [3]
  Activity: inactive

## NC1CCN(C(=O)c2cn3c(ccc4c(C(F)(F)F)cc(C(F)(F)F)nc43)n2)CC1
Hepatitis C virus [1]
  EC50: 0.102 µM
[2]
  CC50: > 25 µM
Hepatitis C virus [3]
  Activity: inactive

## O=C1CN(C(=O)c2cn3c(ccc4c(C(F)(F)F)cc(C(F)(F)F)nc43)n2)CCN1
Hepatitis C virus [1]
  EC50: 12.5 µM
[2]
  CC50: > 25 µM

## CC1CN(C(=O)c2cn3c(ccc4c(C(F)(F)F)cc(C(F)(F)F)nc43)n2)CCN1 (centres undefined)
Hepatitis C virus [1]
  EC50: 0.067 µM
Hepatitis C virus [4]
  Ratio EC50: 5
[2]
  CC50: > 25 µM
Hepatitis C virus [3]
  Activity: inactive

## NCCCCNC(=O)c1cn2c(ccc3c(C(F)(F)F)cc(C(F)(F)F)nc32)n1
Hepatitis C virus [1]
  EC50: 1.13 µM
[2]
  CC50: > 25 µM

## FC(F)(F)c1cc(C(F)(F)F)c2ccc3nc(-c4nnco4)cn3c2n1
Hepatitis C virus [21]
  EC50: 0.203 µM
Hepatitis C virus [3]
  Activity: Active
Vero
  Activity: Active
Huh-7 [5]
  Activity: Active
Huh-7 [6]
  Activity: Active
HepG2
  Activity: Active

## CCOC(=O)[C@@H](CCCCN)NC(=O)c1cn2c(ccc3c(C(F)(F)F)cc(C(F)(F)F)nc32)n1
Hepatitis C virus [1]
  EC50: 0.14 µM
[2]
  CC50: > 25 µM

## NC1CCN(C(=O)c2cn3c(ccc4c(C(F)(F)F)cc(C(F)(F)F)nc43)n2)C1 (centres undefined)
Hepatitis C virus [1]
  EC50: 0.021 µM
Hepatitis C virus [4]
  Ratio EC50: 5
[2]
  CC50: > 25 µM
Hepatitis C virus [3]
  Activity: inactive

## O=C(c1cn2c(ccc3c(C(F)(F)F)cc(C(F)(F)F)nc32)n1)N1CCCC1CO (centres undefined)
Hepatitis C virus [1]
  EC50: 16.6 µM
[2]
  CC50: > 25 µM

## O=C(c1cn2c(ccc3c(C(F)(F)F)cc(C(F)(F)F)nc32)n1)N1CCOCC1
Hepatitis C virus [1]
  EC50: > 20 µM
[2]
  CC50: > 25 µM

## COC(=O)C1CCN(C(=O)c2cn3c(ccc4c(C(F)(F)F)cc(C(F)(F)F)nc43)n2)CC1
Hepatitis C virus [1]
  EC50: 12.7 µM
[2]
  CC50: > 25 µM

## CN1CCN(C(=O)c2cn3c(ccc4c(C(F)(F)F)cc(C(F)(F)F)nc43)n2)CC1
Hepatitis C virus [1]
  EC50: 0.159 µM
[2]
  CC50: > 25 µM
Hepatitis C virus [3]
  Activity: inactive

## O=C(c1cn2c(ccc3c(C(F)(F)F)cc(C(F)(F)F)nc32)n1)N1CCC(O)CC1
Hepatitis C virus [1]
  EC50: > 20 µM
[2]
  CC50: > 25 µM

## O=C(c1cn2c(ccc3c(C(F)(F)F)cc(C(F)(F)F)nc32)n1)N1CCC(CO)CC1
Hepatitis C virus [1]
  EC50: > 20 µM
[2]
  CC50: > 25 µM

## NC1CCCCC1NC(=O)c1cn2c(ccc3c(C(F)(F)F)cc(C(F)(F)F)nc32)n1 (centres undefined)
Hepatitis C virus [1]
  EC50: 0.048 µM
Hepatitis C virus [4]
  Ratio EC50: 5
[2]
  CC50: > 25 µM
Hepatitis C virus [3]
  Activity: inactive

## CO/C1=C\C(C)=C\[C@@H](C)[C@@H](O)[C@@H](C)C/C(C)=C/C=C/[C@H](OC)[C@@H]([C@@H](C)[C@@H](O)[C@H](C)[C@@]2(O)C[C@@H](O)[C@H](C)[C@@H](C(C)C)O2)OC1=O
Hepatitis C virus [7]
  inhibition: Active
Hepatitis C virus [22]
  inhibition: inactive

## COC(=O)CN1CCN(C(=O)c2cn3c(ccc4c(C(F)(F)F)cc(C(F)(F)F)nc43)n2)CC1
Hepatitis C virus [1]
  EC50: 13.2 µM
[2]
  CC50: > 25 µM
